Measured values published in patent US20050036904A1, “Methods for eradication of nanobacteria” (priority 1998, published 2005).
Counter-ions that a name gives are not always drawn.

Tests used:
SF-nanobacteria = test: Chemical disinfection of SF-nanobacteria; assay type: cell-based; design: Resistance of SF-nanobacteria to chemical disinfectants (survival), exposure time 10 min: key to the marks not given beside the values; conditions: for Resistance of SF-nanobacteria to chemical disinfectants (survival), exposure time 10 min: 10 min exposure at room temperature; for Resistance of SF-nanobacteria to chemical disinfectants (survival), exposure time 10 min / Resistance of SF-nanobacteria to chemical disinfectants (survival), exposure time 30 min: survival after subculture compared to diluent only; for Resistance of SF-nanobacteria to chemical disinfectants (survival), exposure time 30 min: 30 min exposure at room temperature; for Effect of chemical treatment on SF-nanobacteria (in words): room temperature exposure
From the text: The cultures were exposed to the disinfectants after removal of the culture medium. For the autoclaving, UV, microwave, and drying treatments, the medium was removed and an equal amount of PBS used instead. For the heat treatments, the SF-nanobacteria were harvested by scraping the culture vessel followed by centrifugation of the medium. The obtained pellet was suspended in PBS and used in the test. After treatments the SF-nanobacteria were subcultured in DMEM medium and the growth followed by light microscopy to see the adherence and typical mineralization.
The concentrations of the chemicals used were those commonly used for disinfection or as instructed by the manufacturer. The chemicals included 70% ethanol, 2% glutaraldehyde, 4% formaldehyde, 0.5% hypochlorite, 3% hydrogen peroxide, 1M hydrochloric acid (HCl), 1M sodium hydroxide (NaOH), 1% sodium dodecyl sulfate (SDS), 1% Tween 80, 1% Triton X-100, 3M guanidium-hydrochloride, 3M urea, 1% Virkon® (Antec International Ltd., Suffolk, England; 100% product contains 50% potassium persulfate, 5% sulfaminoic acid), 1.5% Erifenol® (Orion OY, Finland; 100% product contains <5% NaOH, <5% o-benzyl-p-chlorophenol, 5-15% p-chloro-m-cresol), 1% Klorilli® (Orion OY, Finland; 100% product contains sodium metasilicate, sodium N-chloro-p-toluenesulfonamide-3-hydrate and 20,000 ppm active chlorine), and 3% Buraton® (Schulke & Mayr, Germany; 100% product contains 4.5% formaldehyde, 6.8% glyoxal, 1.5% glyoxylic acid, 6% dimethylaurylbenzyl-ammonium chloride). The dilutions to be used were freshly prepared on the day of exposure in sterile distilled water. As a positive control, only diluent was used. Negative control contained only culture medium.
The SF-nanobacteria were exposed to the chemicals for 10 and 30 minutes at room temperature after removal of the culture medium. After exposure, the disinfectant solution was removed and fresh medium added (with a neutralization step in the case of HCl and NaOH). If any significant deattachment occurred, nanobacteria were recovered by centrifugation, and subcultured.

nanobacteria [1] = test: Treatment of human patients infected with nanobacteria; assay type: in vivo; conditions: person, chronic fatigue syndrome
nanobacteria [2] = test: Nanobacterial growth in culture media with metal ions; assay type: cell-based; conditions: added to culture media at submillimolar levels
From the text: (§1) Nanobacteria also absorb some heavy metals. Nanobacteria can be stained well with silver or copper compounds. […] Silver and copper parts or platings on surfaces, such as catheters or stents, can provide an antinanobacterial effect by preventing nanobacterial biofilm formation. In in vitro tests nanobacteria avidly formed biofilm on two different commercial stents made of a plastic type of material. This biofilm formation was prevented by the addition of silver or copper salts to the culture medium.

nanobacterial biofilm = test: Nanobacterial biofilm formation on commercial stents in vitro; assay type: cell-based, nanobacteria; conditions: salts added to the culture medium; two commercial plastic-type stents
From the text: as §1

nanobacteria [3] = test: Antibiotic susceptibility of nanobacteria, Minimal Inhibition Concentration (MIC) in 96-well plates; assay type: cell-based
Description: Antibiotic sensitivity tests were carried out by measuring Minimal Inhibition Concentration (MIC), a common practice in clinical microbiology.
The tests were performed in 96-well plates. DMEM (commercial cell culture medium) containing 10% gamma-irradiated fetal bovine serum (FBS)(dose about 3 Mrads; this treatment inactivates nanobacteria in the serum so that the basic medium is sterile) was used as the basic culture medium. These components are commercially available, e.g., from Gibco. The antibiotic stock solutions were sterile filtered through 0.2 micrometer filters. The stock solutions were then serially diluted (into the basal culture medium) to provide a final starting concentration of 0.5 mg/ml and 1:2 dilutions therefrom, unless otherwise specified. For each antibiotic three parallel tests were performed using all the antibiotic dilutions and, additionally, positive and negative control experiments. […] 100 μl of dilutions of the nanobacteria inoculum were added to all wells except the negative controls. The plates were incubated at mammalian cell culture conditions (37° Celsius, 5% carbon dioxide, 95% humid air). The absorbance values at 650 nm were recorded by using an ELISA reader at the start, and at 4, 8, 12, 14 days. […] Calculations were based on absorbance curves where absorbance was plotted against concentration of the antibiotic.

[4] = tested on: calculus formation on teeth; conditions: laboratory animals; cited from earlier work
[5] = tested on: nanobacterial stone formation on human teeth; conditions: fluoride concentrations typically present in toothpastes

Compound	Resistance of SF-nanobacteria to chemical disinfectants (survival), exposure time 10 min (SF-nanobacteria)	Resistance of SF-nanobacteria to chemical disinfectants (survival), exposure time 30 min (SF-nanobacteria)	Kind of antinanobacterial effect in the in vitro test (in words) (nanobacteria [3])	further results
OCl [0.5% hypochlorite, hypochlorite]	+++	+++		
CN(C)[C@@H]1C(O)=C(C(N)=O)C(=O)[C@@]2(O)C(O)=C3C(=O)c4c(O)cccc4[C@@](C)(O)[C@H]3C[C@@H]12 [tetracycline HCl]				Nanobacteria status of patient samples (nanobacteria [1]; 500 mg 4 times per day for one month, then 500 mg twice a day for 5 months, urine and serum samples): nanobacteria negative after one month therapy; Patient's condition (nanobacteria [1]; after one month therapy): improved
silver				Nanobacterial growth (nanobacteria [2]): prevented nanobacterial growth; Biofilm formation on stents (nanobacterial biofilm): prevented
O=C(O)CN(CCN(CC(=O)O)CC(=O)O)CC(=O)O [EDTA, ethylenediaminetetraacetic acid]			antinanobacterial effects	
Triton X-100 [1% Triton X-100]	+++	+++		
[H]/N=C(/N)N[C@H]1[C@H](O)[C@@H](O)[C@H](O[C@@H]2O[C@@H](C)[C@](O)(C=O)[C@H]2O[C@@H]2O[C@@H](CO)[C@H](O)[C@@H](O)[C@@H]2NC)[C@@H](N/C(N)=N\[H])[C@@H]1O [Streptomycin]			bacteriostatic effects at high antibiotic concentrations	
O=C(O)CC(O)(CC(=O)O)C(=O)O [Citrate]			effective antinanobacterial agent	
N=C(N)N [3M Guanidium HCl, guanidium-hydrochloride]		0		Effect of chemical treatment on SF-nanobacteria (in words) (SF-nanobacteria): resulted in the deattachment of the SF-nanobacteria
[Na+].[OH-] [1M NaOH, sodium hydroxide]	+++	+++		
O=P(O)(O)C(Cl)(Cl)P(=O)(O)O [Chlodronate]			bacteriocidic effect	
CN[C@H](CC(C)C)C(=O)N[C@H]1C(=O)N[C@@H](CC(N)=O)C(=O)N[C@H]2C(=O)N[C@H]3C(=O)N[C@H](C(=O)N[C@H](C(=O)O)c4cc(O)cc(O)c4-c4cc3ccc4O)[C@H](O)c3ccc(c(Cl)c3)Oc3cc2cc(c3O[C@@H]2O[C@H](CO)[C@@H](O)[C@H](O)[C@H]2O[C@H]2C[C@](C)(N)[C@H](O)[C@H](C)O2)Oc2ccc(cc2Cl)[C@H]1O [Vancomycin]			effective bacteriostat against nanobacteria at relatively high concentrations	
COc1cc(Cc2cnc(N)nc2N)cc(OC)c1OC [Trimethoprim]			highly effective but was only bacteriostatic	
NC(N)=O [3M Urea, urea]	+++	+++		
C[C@H]1c2cccc(O)c2C(=O)C2=C(O)[C@]3(O)C(=O)C(C(N)=O)=C(O)[C@@H](N(C)C)[C@@H]3[C@@H](O)[C@@H]21 [Doxycyclin, Doxycycline]			effective on inhibiting nanobacterial growth	MIC values calculated from the 8 day results (nanobacteria [3]; 8 day results): around 1 mg per liter; Stability under the test conditions (nanobacteria [3]; MIC test culture conditions): not stable under the test conditions
Neomycin			bacteriostatic effects at high antibiotic concentrations	
Vitamin D			very weak inhibitory effect	

Compound	Resistance of SF-nanobacteria to chemical disinfectants (survival), exposure time 10 min (SF-nanobacteria)	Resistance of SF-nanobacteria to chemical disinfectants (survival), exposure time 30 min (SF-nanobacteria)	Kind of antinanobacterial effect in the in vitro test (in words) (nanobacteria [3])	further results
C=O [4% formaldehyde, formaldehyde]	+++	+++		
CCCCCCCC/C=C\CCCCCCCC(=O)OCCOCC(OCCO)C1OCC(OCCO)C1OCCO (stereo not shown) [1% Tween 80, Tween 80]	+++	+++		
OO [3% H2O2, hydrogen peroxide]	+++	+++		
CC(O)(P(=O)(O)O)P(=O)(O)O [Ethidronate]			bacteriocidic effect	
CC1=CC(=O)c2ccccc2C1=O [Vitamin K (Menadion), Menadion]			toxic to nanobacteria at concentrations that are not harmful to mammalian cells	
O=CCCCC=O [2% glutaraldehyde, glutaraldehyde]	+++	+++		
Penicillin				Calculus formation [4]: do not
Cl [1M HCl, hydrochloric acid]		++		Effect of chemical treatment on SF-nanobacteria (in words) (SF-nanobacteria): dissolved the apatite layer of nanobacteria, but remineralization was observed after addition of culture medium
CCO [70% ethanol, ethanol]	+++	+++		
CC1(C)S[C@@H]2[C@H](NC(=O)[C@H](N)c3ccccc3)C(=O)N2[C@H]1C(=O)O [Ampicillin]			weak bacteriostatic effect	
Nc1ccc(C(=O)O)c(O)c1 [para-aminosalicylic acid]				MIC value (in words) (nanobacteria [3]; compared with acetylsalicylic acid): identical with acetylsalicylic acid
O=C(O)CN(CCOCCOCCN(CC(=O)O)CC(=O)O)CC(=O)O [EGTA]			antinanobacterial effects	
F [Fluoride]				Nanobacterial stone formation on human teeth [5]: inhibit nanobacterial stone formation
CCCCCCCCCCCCOS(=O)(=O)[O-].[Na+] [1% SDS, sodium dodecyl sulfate]	+++	+++		
[Cu] [copper]				Nanobacterial growth (nanobacteria [2]): prevented nanobacterial growth; Biofilm formation on stents (nanobacterial biofilm): prevented
CC(=O)Oc1ccccc1C(=O)O [Acetylsalicylic acid]			weak	
